Here are results for five compounds from patent publication US7015329B2 (Janssen Pharmaceutica N. V., priority 2003, dated 2006).

In one assay the target is T1, PPAR delta (Homo sapiens, UniProt Q03181).
T1 construct: expressed in transfected cells; host or cells: HEK293
T1 sequence (Q03181 211-439 limits assumed): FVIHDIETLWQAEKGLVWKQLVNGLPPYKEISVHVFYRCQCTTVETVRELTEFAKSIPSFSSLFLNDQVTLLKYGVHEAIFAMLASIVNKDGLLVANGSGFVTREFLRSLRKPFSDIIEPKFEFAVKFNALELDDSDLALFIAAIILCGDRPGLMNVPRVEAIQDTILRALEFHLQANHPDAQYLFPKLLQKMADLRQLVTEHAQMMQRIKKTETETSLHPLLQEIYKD
Put plainly: Transfection assay for PPAR receptors (GAL4-LBD luciferase reporter), PPAR delta. It counts as cell-based. To be noted: 18–24 hrs. As to the method:
(§1) Transfection Assay Method for PPAR Receptors
(§2) HEK293 cells were grown in DMEM/F12 medium supplemented with 10% FBS and glutamine (Invitrogen) and incubated in a 5% CO2 incubator at 37° C. The cells were co-transfected using DMRIE-C reagent (Invitrogen) in serum free medium (Opti-MEM, Invitrogen) with two mammalian expression plasmids, one containing the DNA sequence coding for the ligand binding domains of either PPARαg or d fused to the yeast GAL4 DNA binding domain and the other containing the promoter sequence of the yeast GAL4 (UAS) fused to the firefly luciferase cDNA reporter. The next day, the medium was changed to DMEM/F12 medium supplemented with 5% charcoal treated serum (Hyclone) and glutamine. After 6 hrs the cells were trypsinized and seeded at a density of 50,000 cells/well into 96 well plates and incubated overnight as above. The cells were then treated with -test compounds or vehicle and incubated for 18–24 hrs as above. Luciferase reporter activity was measured using the Steady-Glo Luciferase Assay Kit from Promega. DMRIE-C Reagent was purchased from GIBCO Cat. No.10459-014. […] Steady-Glo Luciferase Assay Kit was purchased from Promega (Part#E254B).

In the next assay the target is T2, PPAR alpha (Homo sapiens, UniProt Q07869).
T2 construct: expressed in transfected cells; host or cells: HEK293
T2 sequence (Q07869 239-466 limits assumed): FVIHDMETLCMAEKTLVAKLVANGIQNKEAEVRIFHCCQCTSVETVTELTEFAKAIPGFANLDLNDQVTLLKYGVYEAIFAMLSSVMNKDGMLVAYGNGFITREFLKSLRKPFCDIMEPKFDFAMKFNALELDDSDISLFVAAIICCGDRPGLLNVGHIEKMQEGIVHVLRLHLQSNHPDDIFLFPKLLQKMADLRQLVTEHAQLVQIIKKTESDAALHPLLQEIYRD
Kind of assay: Transfection assay for PPAR receptors (GAL4-LBD luciferase reporter), PPAR alpha. Particulars: 18–24 hrs. It counts as cell-based. As to the method: as §1
HEK293 cells were grown in DMEM/F12 medium supplemented with 10% FBS and glutamine (Invitrogen) and incubated in a 5% CO2 incubator at 37° C. The cells were co-transfected using DMRIE-C reagent (Invitrogen) in serum free medium (Opti-MEM, Invitrogen) with two mammalian expression plasmids, one containing the DNA sequence coding for the ligand binding domains of either PPARαg or d fused to the yeast GAL4 DNA binding domain and the other containing the promoter sequence of the yeast GAL4 (UAS) fused to the firefly luciferase cDNA reporter. The next day, the medium was changed to DMEM/F12 medium supplemented with 5% charcoal treated serum (Hyclone) and glutamine. After 6 hrs the cells were trypsinized and seeded at a density of 50,000 cells/well into 96 well plates and incubated overnight as above. The cells were then treated with -test compounds or vehicle and incubated for 18–24 hrs as above. Luciferase reporter activity was measured using the Steady-Glo Luciferase Assay Kit from Promega. DMRIE-C Reagent was purchased from GIBCO Cat. No.10459-014. OPTI-MEM I Reduced Serum Medium was purchased from GIBCO (Cat. No. 31985). Steady-Glo Luciferase Assay Kit was purchased from Promega (Part#E254B).
A variety of example compounds have been made and tested, with a range of in vitro results. Below are representative compounds and data; in some cases, where multiple EC50's are shown, multiple measurements were taken. Naturally, different compounds in Formula (I) may have not have activities identical to any one compound below.

For a further assay, the target named is T3, PPAR gamma (Homo sapiens, UniProt P37231).
T3 construct: expressed in transfected cells; host or cells: HEK293
T3 sequence (P37231 238-503 limits assumed): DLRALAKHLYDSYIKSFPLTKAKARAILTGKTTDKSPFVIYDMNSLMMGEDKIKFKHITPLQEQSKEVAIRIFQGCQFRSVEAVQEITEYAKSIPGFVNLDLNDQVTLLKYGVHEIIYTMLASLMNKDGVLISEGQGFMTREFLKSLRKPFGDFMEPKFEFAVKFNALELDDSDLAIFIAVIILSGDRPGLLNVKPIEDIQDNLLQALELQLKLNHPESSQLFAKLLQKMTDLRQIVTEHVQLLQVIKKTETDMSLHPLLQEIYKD
Put plainly: Transfection assay for PPAR receptors (GAL4-LBD luciferase reporter), PPAR gamma. To be noted: 18–24 hrs. It counts as cell-based. How it is done: as §1, §2

In assay [1] the test system is differentiated THP-1 monocytes. To be noted: cited from earlier work.
The mark [2] stands for this setting: Table 1, HEK293 cells co-transfected with PPAR LBD-GAL4 and GAL4 (UAS) luciferase reporter.
[3] abbreviates: Table 2, compounds of interest, HEK293 cells, PPAR LBD-GAL4 luciferase reporter.

SMILES strings stand for the structures. pEC50: −log10 of the molar value. Where only a bound is given, the exact number is not on record here.

For the compound `Cc1cc(OCc2nc(-c3ccc(Cl)c(Cl)c3)ns2)ccc1OC(C)(C)C(=O)O` [Compound 26, 2-{4-[3-(3,4-Dichloro-phenyl)-[1,2,4]thiadiazol-5-ylmethoxy]-2-methyl-phenoxy}-2-methyl-propionic acid], the pEC50 at PPAR delta (setting [2]) was 6.94; at PPAR alpha (setting [2]) it was 6.30; at PPAR gamma (setting [2]), under 5.52.

Regarding `Cc1cc(SCCc2nc(-c3ccc(Cl)c(Cl)c3)ns2)ccc1OC(C)(C)C(=O)O` [Compound 27, 2-(4-{2-[3-(3,4-Dichloro-phenyl)-[1,2,4]thiadiazol-5-yl]-ethylsulfanyl}-2-methyl-phenoxy)-2-methyl-propionic acid], the negative-log EC50 (pEC50) is 8.03 at PPAR delta (setting [2]), 6.91 at PPAR alpha (setting [2]) and under 6.00 on PPAR gamma (setting [2]).

On to `Cc1cc([S+]([O-])Cc2nc(-c3ccc(Cl)c(Cl)c3)ns2)ccc1OC(C)(C)C(=O)O` (centres unmarked) [Compound a, 2-{4-[3-(3,4-Dichloro-phenyl)-[1,2,4]thiadiazol-5-ylmethanesulfinyl]-2-methyl-phenoxy}-2-methyl-propionic acid], for which the negative-log EC50 (pEC50) was 6.39 on PPAR delta (setting [3]), under 5.52 on PPAR alpha (setting [3]) and under 5.52 at PPAR gamma (setting [3]).

For the compound `Cc1cc(SCc2csnc2-c2ccc(C(F)(F)F)cc2)ccc1OCC(=O)O` [Compound d, {2-Methyl-4-[3-(4-trifluoromethyl-phenyl)-isothiazol-4-ylmethylsulfanyl]-phenoxy}-acetic acid], the pEC50 is 6.82 on PPAR delta (setting [3]), under 5.52 on PPAR alpha (setting [3]) and under 5.52 at PPAR gamma (setting [3]).

Take `Cc1cc(SCc2sc(-c3ccc(C(F)(F)F)cc3)nc2C)ccc1OCC(=O)O` [GW501516]: in assay [1], the “ABCA1 mRNA expression” value was “induced” and the cholesterol efflux result is recorded as “enhanced”.
